Experimental data taken from US11299496B2, “Ligands for alpha-7 nicotinic acetylcholine receptors and methods of treating neurological and inflammatory conditions” (Northeastern University, priority 2014, dated 2022).

Target: T1, human alpha-7 nAChR (Homo sapiens, UniProt P36544)
T1 construct: expressed in transfected cells; host or cells: Xenopus laevis oocytes (cRNA injection)
Assay: Two-electrode voltage clamp of alpha-7 nAChR expressed in Xenopus oocytes (net charge)
Format: cell-based
Conditions: area under the curve of current vs. time; for Charge Alone: compound alone acting as an allosteric agonist; for Charge +C: compound together with choline or ACh, includes PAM and ago-PAM activity; call rule not given here
Protocol: The human alpha-7 nAChR receptor clone was obtained from Dr. Jon Lindstrom {University of Pennsylvania, Philadelphia, Pa.), aid the RIC-3 clone from Dr. Millet Treinin (Hebrew University, Jerusalem, Israel) for the purpose of co-injection with a7 to improve the level and speed of receptor expression (Halevi et al., 2003). After linearization and purification of cloned cDNA's, RNA, transcripts were prepared rising the appropriate mMessage mMachine kit tiom Ambion (Austin, Tex.).
Expression in X, laeivis Oocytes
Oocytes were obtained from mature (>9 cm) female Xenopus laeivis African frogs (Nasco, Ft. Atkinson, Wis.). Frogs were anesthetized in 0.7 g/L solution of ethyl 3-aminobenzoate methanesulfonate buffered with sodium bicarbonate, and oocytes were surgically removed through an abdominal incision. Harvested oocytes were treated with 1.25 mg/ml collagenase (Worthington Biochemicals, Freehold, N.J.) in calcium-free Barth's solution (88 mM NaCl, 1 mM KCl, 2.38 mM NaHCO3, 0.82 mM MgSO4, 15 mM HEPES, 12 mg/L tetracycline, pH 7.6) for 3-4 hours to remove the follicular layer. Stage-5 oocytes were isolated and injected with 50 nL (5-20 ng) of human alpha-7 and RIC-3 cRNA. Suitable levels of receptor expression were typically achieved 2-6 days after injection of cRNA. For experiments involving the PAM 4BP-TQS/GAT-107, where standard levels of expression result in ion currents too large to be recorded in voltage clamp, experiments were typically conducted 1-3 days after RNA injection.
Two-electrode voltage clamp experiments were conducted using OpusXpress6000A (Molecular Devices, Sunnyvale, Calif.), an integrated system that provides automated impalement and voltage clamp of up to eight oocytes in parallel. Both the current and voltage electrodes were filled with 3 M KCl, and oocytes were clamped at a holding potential of −60 mV. Data were collected at 50 Hz and filtered at 20 Hz. The oocytes were bath-perfused with Ringer's solution (115 mM NaCl, 10 mM HEPES, 2.5 mM KCl, 1.8 mM CaCl2, pH 7.3), and agonist solutions were delivered from a 96-well drug plate using disposable tips. Flow rates were set at 2 mL/min, with each drug or control solution delivered in 12 s durations, followed˜by 181 s washouts with Ringer's unless noted otherwise.
Experimental Protocols and Data Analysis
Responses of human alpha-7 receptors to agonists were measured as both peek current and net charge measured over a 120 s period beginning with the compound application (Papke and Papke, 2002). […] In experiments involving positive allosteric modulators (PAMs), the fast desensitization of alpha-7 was eliminated, allowing peak currents to be used as a valid measurement of the receptor-mediated responses (Wang et al., 2012; Williams et al., 2011).
Oocytes received two control ACh applications prior to receiving any drug in order to establish a steady reference response, and they received one or more control ACh applications at the end of all experiments. For experiments involving drug incubation through bath applications, all responses were normalized to the average of two ACh control responses taken immediately prior to the switch of bath solution, for each cell individually. These normalization procedures had the effect of compensating for differing levels of receptor expression among the multiple oocytes used in each experiment. Each experiment was conducted on at least four oocytes, with mean values and standard errors (S.E.M.) calculated from their normalized responses. […]

T1 sequence (P36544 23-502): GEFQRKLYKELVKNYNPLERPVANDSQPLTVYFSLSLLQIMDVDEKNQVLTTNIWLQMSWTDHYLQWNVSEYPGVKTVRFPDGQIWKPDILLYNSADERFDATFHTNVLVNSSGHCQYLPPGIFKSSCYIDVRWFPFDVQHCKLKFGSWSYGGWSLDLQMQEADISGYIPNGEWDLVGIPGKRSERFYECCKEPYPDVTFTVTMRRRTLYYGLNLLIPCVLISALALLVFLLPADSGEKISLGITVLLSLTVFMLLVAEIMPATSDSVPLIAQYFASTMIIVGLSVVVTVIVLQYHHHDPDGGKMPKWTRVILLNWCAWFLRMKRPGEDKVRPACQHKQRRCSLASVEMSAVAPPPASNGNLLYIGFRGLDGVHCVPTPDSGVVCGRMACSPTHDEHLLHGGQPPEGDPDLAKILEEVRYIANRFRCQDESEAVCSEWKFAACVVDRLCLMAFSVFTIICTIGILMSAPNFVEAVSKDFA

Structure (SMILES) | Charge Alone | Charge +C
O=S(=O)(Nc1ccccc1)c1ccc2c(c1)[C@H]1C=CC[C@H]1[C@@H](c1ccc(Br)cc1)N2 (stereo in doubt) [Compound 103, 4-(4-bromophenyl)-N-phenyl-3a,4,5,9b-tetrahydro-3H-cyclopenta[c]quinoline-8-sulfonamide] | Inactive | Inactive
CCNS(=O)(=O)c1ccc2c(c1)[C@@H]1C=CC[C@@H]1[C@@H](c1ccc(Br)cc1)N2 [Compound 113] | Inactive | Inactive
NS(=O)(=O)c1ccc2c(c1)[C@H]1CCC[C@H]1[C@@H](c1ccc(Br)cc1)N2 (stereo in doubt) [Compound 5, 4-(4-bromophenyl)-2,3,3a,4,5,9b-hexahydro-1H-cyclopenta[c]quinoline-8-sulfonamide] | 23 | 93
NS(=O)(=O)c1ccc2c(c1)[C@H]1C=CC[C@H]1[C@@H](c1ccncc1)N2 (stereo in doubt) [Compound 2, 4-(pyridin-4-yl)-3a,4,5,9b-tetrahydro-3H-cyclopenta[c]quinoline-8-sulfonamide] | Inactive | Inactive
CS(=O)(=O)Nc1ccc2c(c1)[C@H]1C=CC[C@H]1[C@@H](c1ccc(Br)cc1)N2 (stereo in doubt) [Compound 115, N-(4-(4-bromophenyl)-3a,4,5,9b-tetrahydro-3H-cyclopenta[c]quinolin-8-yl)methanesulfonamide] | Inactive | Inactive
CC(C)OC(=O)Nc1ccc([C@H]2Nc3ccc(S(N)(=O)=O)cc3[C@H]3C=CC[C@H]32)cc1 (stereo in doubt) [Compound 68, isopropyl (4-(8-sulfamoyl-3a,4,5,9b-tetrahydro-3H-cyclopenta[c]quinolin-4-yl)phenyl)carbamate] | 80 | 156
[N-]=[N+]=Nc1ccc([C@@H]2Nc3ccc(S(N)(=O)=O)cc3[C@@H]3C=CC[C@@H]32)cc1 [Compound 47, (3aS,4R,9bR)-4-(4-azidophenyl)-3a,4,5,9b-tetrahydro-3H-cyclopenta[c]quinoline-8-sulfonamide] | Inactive | Inactive
O=S(=O)(c1ccc2c(c1)[C@H]1C=CC[C@H]1[C@@H](c1ccc(Br)cc1)N2)N1CCOCC1 (stereo in doubt) [Compound 23, 4-((4-(4-bromophenyl)-3a,4,5,9b-tetrahydro-3H-cyclopenta[c]quinolin-8-yl)sulfonyl)morpholine] | Inactive | Inactive
CC(=O)NS(=O)(=O)c1ccc2c(c1)[C@H]1C=CC[C@H]1[C@@H](c1ccc(Br)cc1)N2 (stereo in doubt) [Compound 116, N-((4-(4-bromophenyl)-3a,4,5,9b-tetrahydro-3H-cyclopenta[c]quinolin-8-yl)sulfonyl)acetamide] | Inactive | Inactive
NS(=O)(=O)c1ccc2c(c1)[C@H]1C=CC[C@H]1[C@@H](C1CCCCC1)N2 (stereo in doubt) [Compound 19, 4-cyclohexyl-3a,4,5,9b-tetrahydro-3H-cyclopenta[c]quinoline-8-sulfonamide] | Inactive | Inactive
CCCCNS(=O)(=O)c1ccc2c(c1)[C@H]1C=CC[C@H]1[C@@H](c1ccc(Br)cc1)N2 (stereo in doubt) [Compound 110, 4-(4-bromophenyl)-N-butyl-3a,4,5,9b-tetrahydro-3H-cyclopenta[c]quinoline-8-sulfonamide] | Inactive | Inactive
CCN(CC)S(=O)(=O)c1ccc2c(c1)[C@H]1C=CC[C@H]1[C@@H](c1ccc(Br)cc1)N2 (stereo in doubt) [Compound 55, 4-(4-bromophenyl)-N,N-diethyl-3a,4,5,9b-tetrahydro-3H-cyclopenta[c]quinoline-8-sulfonamide] | Inactive | Inactive
O=C(O)c1ccc2c(c1)[C@H]1C=CC[C@H]1[C@@H](c1ccc(Cl)cc1Cl)N2 [Compound 29, 4-(2,4-dichlorophenyl)-3a,4,5,9b-tetrahydro-3H-cyclopenta[c]quinoline-8-carboxylic acid] | Inactive | Inactive
CCC(C)CNS(=O)(=O)c1ccc2c(c1)[C@H]1C=CC[C@H]1[C@@H](c1ccc(Br)cc1)N2 (stereo in doubt) [Compound 109, 4-(4-bromophenyl)-N-(2-methylbutyl)-3a,4,5,9b-tetrahydro-3H-cyclopenta[c]quinoline-8-sulfonamide] | Inactive | Inactive
O=C(O)c1ccc2c(c1)[C@H]1C=CC[C@H]1[C@@H](c1ccc(Br)cc1)N2 (stereo in doubt) [Compound 40, 4-(4-bromophenyl)-3a,4,5,9b-tetrahydro-3H-cyclopenta[c]quinoline-8-carboxylic acid] | Inactive | Inactive
O=S(=O)(NC1CCCCC1)c1ccc2c(c1)[C@H]1C=CC[C@H]1[C@@H](c1ccc(Br)cc1)N2 (stereo in doubt) [Compound 102, 4-(4-bromophenyl)-N-cyclohexyl-3a,4,5,9b-tetrahydro-3H-cyclopenta[c]quinoline-8-sulfonamide] | Inactive | Inactive

More lines, now with the values ahead:

Charge Alone | Charge +C | Structure (SMILES)
242 | 684 | NS(=O)(=O)c1ccc2c(c1)[C@H]1C=CC[C@H]1[C@@H](c1ccc(I)cc1)N2 [Compound 46, (3aR,4S,9bS)-4-(4-iodophenyl)-3a,4,5,9b-tetrahydro-3H-cyclopenta[c]quinoline-8-sulfonamide]
Inactive | Inactive | NS(=O)(=O)c1ccc2c(c1)[C@@H]1C=CC[C@@H]1[C@H](c1ccc(I)cc1)N2 [Compound 45, (3aS,4R,9bR)-4-(4-iodophenyl)-3a,4,5,9b-tetrahydro-3H-cyclopenta[c]quinoline-8-sulfonamide]
61 | – | [N-]=[N+]=Nc1ccc([C@H]2Nc3ccc(S(N)(=O)=O)cc3[C@H]3C=CC[C@H]32)cc1 (stereo in doubt) [Compound 25, 4-(4-azidophenyl)-3a,4,5,9b-tetrahydro-3H-cyclopenta[c]quinoline-8-sulfonamide]
0.031 | 21.096 | NS(=O)(=O)c1ccc2c(c1)[C@H]1C=CC[C@H]1[C@@H](c1cccs1)N2 (stereo in doubt) [Compound 17, 4-(thiophen-2-yl)-3a,4,5,9b-tetrahydro-3H-cyclopenta[c]quinoline-8-sulfonamide]
– | 76 | NS(=O)(=O)c1ccc2c(c1)[C@H]1C=CC[C@H]1[C@@H](Cc1ccccc1)N2 (stereo in doubt) [Compound 13, 4-benzyl-3a,4,5,9b-tetrahydro-3H-cyclopenta[c]quinoline-8-sulfonamide]
– | 100 | NS(=O)(=O)c1ccc2c(c1)[C@H]1C=CC[C@H]1[C@@H](c1cc(Br)sc1Br)N2 [Compound 67, (3aR,4S,9bS)-4-(2,5-dibromothiophen-3-yl)-3a,4,5,9b-tetrahydro-3H-cyclopenta[c]quinoline-8-sulfonamide]
– | 128 | NS(=O)(=O)c1ccc([C@H]2Nc3ccc(S(N)(=O)=O)cc3[C@H]3C=CC[C@H]32)cc1 (stereo in doubt) [Compound 28, 4-(4-sulfamoylphenyl)-3a,4,5,9b-tetrahydro-3H-cyclopenta[c]quinoline-8-sulfonamide]
– | 76 | NS(=O)(=O)c1ccc2c(c1)[C@H]1C=CC[C@H]1[C@@H](c1ccc(Br)c3ccccc13)N2 (stereo in doubt) [Compound 53, 4-(4-bromonaphthalen-1-yl)-3a,4,5,9b-tetrahydro-3H-cyclopenta[c]quinoline-8-sulfonamide]
